Measurements taken from article PMC11219871, “Epigenetic-based differentiation therapy for Acute Myeloid Leukemia” (Nature Communications, 2024).
“And” between values parts separate entries of the source, which are not always exact repeats. Equal entries are not always repeated. Where two headings read alike, the source gives them in different places.

Tests used:
M-O7e = experiment: Differentiation assay, CD11b / annexin-V flow cytometry; format: cell-based; conditions: MO7e cell line; replicates 1-3 (Figure 2A);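 also: daily treatment at a GI50-based fraction of each compound's GI50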
Procedure: (§1) Next, the cells were washed twice with phosphate-buffered saline (PBS) and resuspended in 1X Binding Buffer at a concentration of 1 × 10^6 cells/mL. An 8-µL aliquot of APC-CD11b (BD Pharmingen, Franklin Lakes, NJ, USA) and 1 µL of FITC annexin-V (AV) (BD Pharmingen, Franklin Lakes, NJ, USA) antibodies were added and incubated for 15 min at room temperature in the dark. Finally, after the addition of 400 µL of 1X Binding Buffer to each tube, samples were collected on a BD FACSCanto flow cytometer (Becton Dickinson, San Jose, CA, USA) and analyzed using FlowJo software.

NB-4 = experiment: as above; format: cell-based; conditions: for CD11b (%): NB4 cell line, replicates 1-3 (Figure 2A)
Procedure: as §1

OCI-AML2 = experiment: as above; format: cell-based; conditions: OCI-AML-2 cell line; replicates 1-3 (Figure 2A)
Procedure: as §1

GF-D8 = experiment: as above; format: cell-based; conditions: GF-D8 cell line; replicates 1-3 (Figure 2A);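 also: daily treatment at a GI50-based fraction of each compound's GI50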
Procedure: as §1

UT-7 = experiment: as above; format: cell-based; conditions: UT7 cell line; replicates 1-3 (Figure 2A)
Procedure: as §1

THP-1 = experiment: as above; format: cell-based; conditions: THP-1 cell line; replicates 1-3 (Figure 2A)
Procedure: as §1

KASUMI-1 = experiment: as above; format: cell-based; conditions: KASUMI-1 cell line; replicates 1-3 (Figure 2A);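 also: daily treatment at a GI50-based fraction of each compound's GI50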
Procedure: as §1

HEL = experiment: as above; format: cell-based; conditions: HEL cell line; replicates 1-3 (Figure 2A)
Procedure: as §1

ML-2 = experiment: Acetylome analysis (Acetyl-K enrichment, LC-MS/MS); format: cell-based, human; conditions: for Acetyl-K sites regulated, Number, Histone proteins / Acetyl-K sites regulated, Number, Non-histone proteins / Acetyl-K sites regulated, Percentages, Histone proteins / Acetyl-K sites regulated, Percentages, Non-histone proteins: Fig 4G; for Acetyl-K sites: Down-regulated, % / Acetyl-K sites: Down-regulated, Number / Acetyl-K sites: Non-regulated, % / Acetyl-K sites: Non-regulated, Number / Acetyl-K sites: Quantified (total number) / Acetyl-K sites: Regulated, % / Acetyl-K sites: Regulated, Number / Acetyl-K sites: Up-regulated, % / Acetyl-K sites: Up-regulated, Number: ML-2 (Fig 4C); for Acetyl-K sites, Down-regulated / Acetyl-K sites, Up-regulated: Fig. 4C; for regulated Acetyl-K sites in Histone proteins / regulated Acetyl-K sites in Non-histone proteins: Fig. 4G; for percentage of Acetyl-K sites regulated: of 3618 quantified
Procedure: Cellular pellets were lysed for 15 min at 95 °C in 4% SDS, 100 mM Hepes/NaOH pH 8.0, containing 5 mM sodium butyrate and 5 mM Nicotinamide. After cooling down, lysates were incubated at 25 °C with 10 units of DNAse (Benzonase, Merk) and sonicated for 15 min in a Bioruptor for DNA shearing. Protein concentration was determined using microBCA, using BSA as standard. Samples were digested using on-bead protein aggregation capture (PAC) with ReSyn Biosciences MagReSyn® Hydoxyl microparticles (ratio Protein/Beads 1:5) in an automated King Fisher instrument (Thermo). Proteins were digested for 16 h at 37 C with LysC/Trypsin mix at a protein: enzyme ratio of 1:100 in 50 mM TEAB pH 8.0 (Trypsin Sequence grade, Sigma; LysC, Wako). The resulting peptides were speed-vac dried and dissolved in 100 µL of 200 mM HEPES pH 8.5.
Peptides (500 µg) were labeled with Thermo Scientific TMTpro 18plex™ Isobaric reagents for 1 h at 25 C. Reaction was quenched by adding 5% hydroxylamine for 15 min. Samples were pooled at a 1:1 ratio based on the total peptide amount, determined by comparing overall signal intensities on a regular LC-MS/MS run. The final mixture was desalted using a 500 mg Sep-Pak C18t cartridge (Waters) and dried prior to high pH reverse phase HPLC pre-fractionation.
Labeled peptides were fractionated offline through a high pH reverse phase chromatography using an Ultimate 3000 HPLC system equipped with a sample collector. Briefly, peptides were dissolved in 1200 µL of Buffer A (10 mM NH4OH) and loaded onto a XBridge BEH130 C18 column (3.5 µm, 250 mm length and 3.5 mm ID, Waters). Buffer B was composed of 10 mM NH4OH in 90% CH3CN. The following gradient was used at a flow rate of 500 µL/min: 0-50 min 0-25% B, 50-56 min 25-60% B, 56-57 min 60-90% B. One-minute fractions (500 µL) from […] were collected and neutralized with 10% formic acid. Based on the UV absorbance at 280 nm, 95% of the volume of 40 fractions was pooled in 5 fractions for Acetyl-Lysine enrichment. The 5% of these fractions was kept for proteome analysis. Pooled fractions were snap-frozen and lyophilized.
Lyophilized peptides (1.5 mg) from each pool were immuno-affinity purified with the PTMScan HS Acetyl-Lysine Motif (Ac−K) kit (Cell Signaling Technology). For each pool, three consecutive immuno-purifications (IPs) were performed using the manufacturer’s protocol in an automated King Fisher instrument (Thermo). Elution of purified peptides was performed in two consecutive steps of 50 μl of 0.15% TFA. Samples were desalted with C18 stage tips and eluates were vacuum dried and resuspended in 0.1% formic acid for subsequent analysis by LC−MS/MS.
LC-MS/MS was done by coupling an UltiMate 3000 RSLCnano LC system to an Orbitrap Exploris 480 mass spectrometer (Thermo Fisher Scientific). Samples were loaded into a trap column (Acclaim™ PepMap™ 100 C18 LC Columns 5 µm, 20 mm length) for 3 min at a flow rate of 10 µL/min in 0.1% FA. Peptides were then transferred to an EASY-Spray PepMap RSLC C18 column (Thermo) (2 µm, 75 µm x 50 cm) operated at 45 °C and separated using a 90 min effective gradient (buffer A: 0.1% FA; buffer B: 100% ACN, 0.1% FA) at a flow rate of 250 nL/min. The gradient used was, from 4% to 6% of buffer B the first 2 min, from 6% to 33% B the next 58 min, plus 10 additional minutes at 98% B.
The mass spectrometer was operated in a data-dependent mode, with an automatic switch between MS and MS/MS scans using a top 15 method. (Intensity threshold ≥ 1e4, dynamic exclusion of 20 sec and excluding charges unassigned, +1 and ≥ +7). MS spectra were acquired from 350 to 1500 m/z with a resolution of 60,000 FMHW (200 m/z). Ion peptides were isolated using a 0.7 Th window and fragmented using higher-energy collisional dissociation (HCD) with a normalized collision energy NCE of 36. MS/MS spectra were acquired with a fixed first mass of 120 m/z and a resolution of 45,000 FMHW (200 m/z). […]

[1] = ML-2, first (superseded) acetylome experiment, peer review file
[2] = distribution of acetylated sites in the acetylated proteins (Fig 4D)

SMILES | Acetyl-K sites regulated, Number, Histone proteins (ML-2) | Acetyl-K sites regulated, Number, Non-histone proteins (ML-2) | Acetyl-K sites regulated, Percentages, Histone proteins (ML-2) | Acetyl-K sites regulated, Percentages, Non-histone proteins (ML-2) | Acetyl-K sites: Down-regulated, % (ML-2) [%] | Acetyl-K sites: Down-regulated, Number (ML-2) | Acetyl-K sites: Non-regulated, % (ML-2) [%] | Acetyl-K sites: Non-regulated, Number (ML-2) | Acetyl-K sites: Quantified (total number) (ML-2) | Acetyl-K sites: Regulated, % (ML-2) [%] | Acetyl-K sites: Regulated, Number (ML-2) | Acetyl-K sites: Up-regulated, Number (ML-2) | fraction of regulated acetylation sites upregulated (ML-2; ML-2, 25% GI50, 12 h) [%] | Acetyl-K sites, Down-regulated (ML-2; ML-2, 25% GI50, 12 h) | Acetyl-K sites, Up-regulated (ML-2; ML-2, 25% GI50, 12 h) | regulated Acetyl-K sites in Histone proteins (ML-2; ML-2, 25% GI50, 12 h) | regulated Acetyl-K sites in Non-histone proteins (ML-2; ML-2, 25% GI50, 12 h) | percentage of Acetyl-K sites regulated (ML-2; ML-2, 25% GI50, 12 h) [%] | acetyl K-sites regulated specifically by the compound (ML-2; [1]) | fraction of regulated acetylation sites upregulated (ML-2; [1]) [%] | also measured
CC1=C(/C=C/C(C)=C/C=C/C(C)=C/C(=O)O)C(C)(C)CCC1 [ATRA, all-trans retinoic acid, reference compound] |  |  |  |  |  |  |  |  |  |  |  |  |  |  |  |  |  |  |  |  | CD11b (%) (M-O7e): 0.25% and 2.3% and 4.5%; CD11b (%) (NB-4): 89.2% and 76.4% and 74.85%; differentiation (CD11b) (NB-4; NB-4, daily 25% GI50, 48 h): induced differentiation; CD11b (%) (OCI-AML2): 15.2% and 20.2% and 14.1%; CD11b (%) (GF-D8): 5.2% and 12.5% and 12.9%; CD11b (%) (UT-7): 5.9% and 6.4% and 10.05%; CD11b (%) (THP-1): 48.6% and 40.2% and 38.7%; CD11b (%) (KASUMI-1): 1.2% and 9.5% and 4.6%; CD11b (%) (HEL): 1.5% and 0.9% and 3.54%
COc1cc2nc(-c3ccc(C)o3)cc(NCC3CCN(c4ncc(C(=O)NO)cn4)CC3)c2cc1OC [CM-444, 2-[4-[[[6,7-dimethoxy-2-(5-methyl-2-furyl)-4-quinolyl]amino]methyl]-1-piperidyl]pyrimidine-5-carbohydroxamic acid] | 58 | 766 | 7 | 93 | 11.9 | 429 | 77.2 | 2794 | 3618 | 22.8 | 824 | 395 | 47.9 | 429 | 395 | 58 | 766 | 22.8 | 202 | 49.7 | CD11b (%) (M-O7e): 5.2% and 11.2% and 10.9%; CD11b (%) (NB-4): 46.5% and 38.3% and 33.9%; CD11b (%) (OCI-AML2): 21.1% and 24.6% and 20.5%; CD11b (%) (GF-D8): 26.5% and 25.8% and 22.1%; CD11b (%) (UT-7): 16.8% and 20.4% and 21.0%; CD11b (%) (THP-1): 99.1% and 93.5% and 92.1%; CD11b (%) (KASUMI-1): 16.9% and 10.6% and 19.6%; CD11b (%) (HEL): 12.7% and 10.5% and 8.2%; Number of proteins with >5 Acetyl-K sites per protein (ML-2): 14; Acetyl-K sites: Up-regulated, % (ML-2): 10.9%; Number of proteins with 1 Acetyl-K site per protein (ML-2; [2]): 421; Number of proteins with 2 Acetyl-K sites per protein (ML-2; [2]): 79; Number of proteins with 3 Acetyl-K sites per protein (ML-2; [2]): 29; Number of proteins with 4 Acetyl-K sites per protein (ML-2; [2]): 14
Cc1[nH]c2ccccc2c1CCNCc1ccc(/C=C/C(=O)NO)cc1 [Panobinostat, reference compound] | 52 | 587 | 8.1 | 91.9 | 8.9 | 322 | 82.3 | 2979 | 3618 | 17.7 | 639 | 317 | 49.6 | 322 | 317 | 52 | 587 | 17.7 | 232 | 53.2 | Number of proteins with >5 Acetyl-K sites per protein (ML-2): 11; Acetyl-K sites: Up-regulated, % (ML-2): 8.8%; Number of proteins with 1 Acetyl-K site per protein (ML-2; [2]): 354; Number of proteins with 2 Acetyl-K sites per protein (ML-2; [2]): 56; Number of proteins with 3 Acetyl-K sites per protein (ML-2; [2]): 25; Number of proteins with 4 Acetyl-K sites per protein (ML-2; [2]): 6
O=C(CCCCCCC(=O)Nc1ccccc1)NO [Vorinostat, reference compound] | 40 | 469 | 7.9 | 92.1 | 7.7 | 232 | 85.9 | 3109 | 3618 | 14.1 | 509 | 277 | 54.4 | 232 | 277 | 40 | 469 | 14.1 | 121 | 37.3 | Number of proteins with 1 Acetyl-K site per protein (ML-2; [2]): 298; Number of proteins with 2 Acetyl-K sites per protein (ML-2; [2]): 54; Number of proteins with 3 Acetyl-K sites per protein (ML-2; [2]): 16; Number of proteins with 4 Acetyl-K sites per protein (ML-2; [2]): 5; Number of proteins with >5 Acetyl-K sites per protein (ML-2; [2]): 6
